Results reported in patent publication US20220009920A1 (GB005, Inc., priority 2020, published 2022).

Experiments:
Assay in all cases: Large panel kinase profiling
Format in all cases: biochemical
Details in all cases: 1 μM test article, 1 mM ATP
CSNK2A1/CK2A1 = molecular target: T1, CSNK2A1/CK2A1 (Homo sapiens, UniProt P68400)
T1 construct: AssayQuant Technologies, Inc. (service laboratory)
Procedure, shortened: (§1)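 Single-point profiling at 1 μM test article used 1 mM ATP. Phosphorylation was tracked by sensor fluorescence increase over time at 30° C., with readings each minute at excitation 360 nm and emission 485 nm.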

EPHA2 = EPHA2 (Homo sapiens, UniProt P29317)
Procedure, shortened: as §1

CDC42BPB/MRCKB = molecular target: T2, CDC42BPB/MRCKB (Homo sapiens, UniProt Q9Y5S2)
T2 construct: AssayQuant Technologies, Inc. (ran the panel)
Procedure, shortened: as §1

BMP2K/BIKE = BMP2K/BIKE (Homo sapiens, UniProt Q9NSY1)
Procedure, shortened: as §1

FLT3 = molecular target: T3, FLT3 (Homo sapiens, UniProt P36888)
T3 construct: AssayQuant Technologies, Inc. (service provider)
T3 sequence (P36888 27-993): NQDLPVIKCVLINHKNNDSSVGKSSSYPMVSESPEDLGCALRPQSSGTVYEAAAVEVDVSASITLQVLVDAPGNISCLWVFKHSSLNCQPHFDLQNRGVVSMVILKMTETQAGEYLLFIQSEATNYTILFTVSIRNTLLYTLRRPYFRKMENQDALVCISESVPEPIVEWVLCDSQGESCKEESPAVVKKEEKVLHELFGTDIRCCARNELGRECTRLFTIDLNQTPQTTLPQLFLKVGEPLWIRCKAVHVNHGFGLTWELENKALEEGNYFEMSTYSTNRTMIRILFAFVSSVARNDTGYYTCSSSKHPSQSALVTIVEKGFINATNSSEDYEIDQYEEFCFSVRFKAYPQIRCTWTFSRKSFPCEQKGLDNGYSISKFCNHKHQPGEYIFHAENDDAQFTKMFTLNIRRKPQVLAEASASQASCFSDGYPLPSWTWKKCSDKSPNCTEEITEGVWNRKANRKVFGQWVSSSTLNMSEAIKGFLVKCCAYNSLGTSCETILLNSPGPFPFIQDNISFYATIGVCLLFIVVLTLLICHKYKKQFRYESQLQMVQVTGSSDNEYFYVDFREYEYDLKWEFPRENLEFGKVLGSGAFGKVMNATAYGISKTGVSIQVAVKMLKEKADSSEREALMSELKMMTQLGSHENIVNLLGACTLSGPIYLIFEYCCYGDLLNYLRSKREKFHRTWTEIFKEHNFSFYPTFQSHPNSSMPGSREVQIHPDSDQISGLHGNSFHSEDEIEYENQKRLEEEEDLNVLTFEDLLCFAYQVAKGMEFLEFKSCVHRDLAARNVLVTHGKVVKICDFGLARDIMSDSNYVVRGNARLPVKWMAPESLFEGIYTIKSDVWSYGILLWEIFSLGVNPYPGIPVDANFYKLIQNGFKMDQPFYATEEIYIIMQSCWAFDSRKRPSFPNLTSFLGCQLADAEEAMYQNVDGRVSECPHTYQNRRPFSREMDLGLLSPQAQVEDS
Procedure, shortened: as §1

MAPK7/ERK5 = molecular target: T4, MAPK7/ERK5 (Homo sapiens, UniProt Q13164)
T4 construct: AssayQuant Technologies, Inc. (service provider)
Procedure, shortened: as §1

PASK = PASK (Homo sapiens, UniProt Q96RG2)
Procedure, shortened: as §1

CAMK2A = CAMK2A (Homo sapiens, UniProt Q9UQM7)
Procedure, shortened: as §1

CLK3 = molecular target: T5, CLK3 (Homo sapiens, UniProt P49761)
T5 construct: AssayQuant Technologies, Inc. (service laboratory)
Procedure, shortened: as §1

EPHB2 = molecular target: T6, EPHB2 (Homo sapiens, UniProt P29323)
T6 sequence (P29323 19-1055): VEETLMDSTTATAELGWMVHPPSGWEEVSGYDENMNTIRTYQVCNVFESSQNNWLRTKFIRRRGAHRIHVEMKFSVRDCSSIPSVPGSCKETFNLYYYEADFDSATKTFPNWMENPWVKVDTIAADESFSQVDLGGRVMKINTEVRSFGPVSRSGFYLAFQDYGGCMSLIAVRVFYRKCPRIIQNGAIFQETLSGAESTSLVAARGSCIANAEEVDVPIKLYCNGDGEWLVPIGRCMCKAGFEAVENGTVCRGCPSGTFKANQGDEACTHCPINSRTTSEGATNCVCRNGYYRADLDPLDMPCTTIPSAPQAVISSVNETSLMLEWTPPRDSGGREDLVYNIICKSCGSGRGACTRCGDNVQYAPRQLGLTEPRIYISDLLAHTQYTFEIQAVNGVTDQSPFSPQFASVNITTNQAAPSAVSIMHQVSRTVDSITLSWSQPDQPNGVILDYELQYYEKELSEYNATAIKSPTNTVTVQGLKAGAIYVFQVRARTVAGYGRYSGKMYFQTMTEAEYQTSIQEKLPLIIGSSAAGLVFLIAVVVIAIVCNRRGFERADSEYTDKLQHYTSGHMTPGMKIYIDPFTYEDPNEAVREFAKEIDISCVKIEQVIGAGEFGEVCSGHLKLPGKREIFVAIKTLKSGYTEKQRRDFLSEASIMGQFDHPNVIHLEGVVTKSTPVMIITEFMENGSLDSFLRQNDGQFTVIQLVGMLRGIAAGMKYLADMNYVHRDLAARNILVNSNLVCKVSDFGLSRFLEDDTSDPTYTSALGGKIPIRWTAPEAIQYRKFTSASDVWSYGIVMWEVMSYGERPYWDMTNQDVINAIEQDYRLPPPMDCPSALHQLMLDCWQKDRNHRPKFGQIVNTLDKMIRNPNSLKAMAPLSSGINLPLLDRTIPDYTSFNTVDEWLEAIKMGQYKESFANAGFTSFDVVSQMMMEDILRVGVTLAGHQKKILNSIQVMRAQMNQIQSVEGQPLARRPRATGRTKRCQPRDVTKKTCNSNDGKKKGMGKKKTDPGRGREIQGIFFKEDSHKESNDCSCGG
Procedure, shortened: as §1

T4 sequence (Q13164 whole entry): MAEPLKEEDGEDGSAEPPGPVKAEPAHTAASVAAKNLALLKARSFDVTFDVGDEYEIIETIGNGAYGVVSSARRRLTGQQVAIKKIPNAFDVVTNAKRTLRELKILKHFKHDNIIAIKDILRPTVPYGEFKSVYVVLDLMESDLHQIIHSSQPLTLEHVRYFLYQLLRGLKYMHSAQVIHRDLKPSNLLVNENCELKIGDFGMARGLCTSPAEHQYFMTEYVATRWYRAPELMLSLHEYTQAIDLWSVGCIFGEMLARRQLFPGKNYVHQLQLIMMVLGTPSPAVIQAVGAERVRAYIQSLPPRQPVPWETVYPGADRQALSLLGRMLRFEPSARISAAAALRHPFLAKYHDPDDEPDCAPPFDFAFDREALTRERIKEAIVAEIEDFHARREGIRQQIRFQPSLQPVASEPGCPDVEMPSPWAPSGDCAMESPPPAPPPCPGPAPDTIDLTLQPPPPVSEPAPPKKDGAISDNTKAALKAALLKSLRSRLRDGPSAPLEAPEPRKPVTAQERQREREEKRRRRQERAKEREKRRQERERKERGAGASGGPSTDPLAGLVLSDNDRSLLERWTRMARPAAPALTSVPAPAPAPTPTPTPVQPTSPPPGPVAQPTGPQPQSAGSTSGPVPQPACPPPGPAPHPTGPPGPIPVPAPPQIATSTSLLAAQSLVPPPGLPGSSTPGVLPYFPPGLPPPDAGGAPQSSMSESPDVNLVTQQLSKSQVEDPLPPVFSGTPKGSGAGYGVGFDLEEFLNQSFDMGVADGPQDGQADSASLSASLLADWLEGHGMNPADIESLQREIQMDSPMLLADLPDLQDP
T5 sequence (P49761 whole entry, species assumed): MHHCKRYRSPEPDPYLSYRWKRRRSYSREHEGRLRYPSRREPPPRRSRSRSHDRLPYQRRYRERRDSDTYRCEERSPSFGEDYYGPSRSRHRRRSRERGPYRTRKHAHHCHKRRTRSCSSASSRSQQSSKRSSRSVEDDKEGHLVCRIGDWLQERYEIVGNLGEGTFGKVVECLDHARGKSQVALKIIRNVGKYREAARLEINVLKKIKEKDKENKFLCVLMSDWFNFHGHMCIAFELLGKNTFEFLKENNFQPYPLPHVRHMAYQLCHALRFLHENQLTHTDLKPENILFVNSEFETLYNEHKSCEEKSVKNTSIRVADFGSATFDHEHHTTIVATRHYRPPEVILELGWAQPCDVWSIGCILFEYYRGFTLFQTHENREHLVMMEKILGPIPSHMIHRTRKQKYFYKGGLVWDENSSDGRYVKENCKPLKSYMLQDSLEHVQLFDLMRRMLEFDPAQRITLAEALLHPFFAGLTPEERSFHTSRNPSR
Chain of PASK (Q96RG2 whole entry): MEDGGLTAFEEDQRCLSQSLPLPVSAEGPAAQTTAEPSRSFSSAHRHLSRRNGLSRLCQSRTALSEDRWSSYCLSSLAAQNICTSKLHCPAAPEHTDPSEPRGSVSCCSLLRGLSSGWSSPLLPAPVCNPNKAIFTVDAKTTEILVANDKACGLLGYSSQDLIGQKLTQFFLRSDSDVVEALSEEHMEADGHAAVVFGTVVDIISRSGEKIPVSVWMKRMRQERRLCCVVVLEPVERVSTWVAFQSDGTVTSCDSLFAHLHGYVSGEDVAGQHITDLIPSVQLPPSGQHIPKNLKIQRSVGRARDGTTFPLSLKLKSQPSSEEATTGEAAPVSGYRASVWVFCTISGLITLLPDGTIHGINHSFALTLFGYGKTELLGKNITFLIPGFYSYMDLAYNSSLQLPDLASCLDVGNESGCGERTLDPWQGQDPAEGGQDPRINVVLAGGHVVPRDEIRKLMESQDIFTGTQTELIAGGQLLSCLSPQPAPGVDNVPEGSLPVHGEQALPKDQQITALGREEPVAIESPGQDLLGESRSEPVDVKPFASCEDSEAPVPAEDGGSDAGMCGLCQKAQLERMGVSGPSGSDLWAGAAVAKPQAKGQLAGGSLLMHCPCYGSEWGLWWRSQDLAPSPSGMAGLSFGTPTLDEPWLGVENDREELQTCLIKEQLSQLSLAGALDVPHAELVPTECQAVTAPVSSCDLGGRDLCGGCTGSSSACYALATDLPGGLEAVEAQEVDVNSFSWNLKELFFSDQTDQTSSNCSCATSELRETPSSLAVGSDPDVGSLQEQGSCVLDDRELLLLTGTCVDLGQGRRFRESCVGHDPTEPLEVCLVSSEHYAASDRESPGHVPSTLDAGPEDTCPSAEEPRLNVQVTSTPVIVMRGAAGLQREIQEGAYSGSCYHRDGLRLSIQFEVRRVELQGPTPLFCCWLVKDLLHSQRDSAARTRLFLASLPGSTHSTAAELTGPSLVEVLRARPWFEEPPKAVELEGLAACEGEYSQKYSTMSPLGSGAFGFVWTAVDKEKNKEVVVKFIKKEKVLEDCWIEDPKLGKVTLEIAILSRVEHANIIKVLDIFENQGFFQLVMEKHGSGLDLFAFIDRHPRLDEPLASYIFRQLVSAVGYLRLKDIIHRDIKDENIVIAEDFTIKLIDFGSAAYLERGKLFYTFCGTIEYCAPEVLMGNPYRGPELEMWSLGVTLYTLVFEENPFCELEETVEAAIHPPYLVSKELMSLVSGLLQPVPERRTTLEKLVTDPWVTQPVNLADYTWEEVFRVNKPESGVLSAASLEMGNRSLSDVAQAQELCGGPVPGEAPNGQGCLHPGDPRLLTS
Chain of EPHA2 (P29317 24-976, species assumed): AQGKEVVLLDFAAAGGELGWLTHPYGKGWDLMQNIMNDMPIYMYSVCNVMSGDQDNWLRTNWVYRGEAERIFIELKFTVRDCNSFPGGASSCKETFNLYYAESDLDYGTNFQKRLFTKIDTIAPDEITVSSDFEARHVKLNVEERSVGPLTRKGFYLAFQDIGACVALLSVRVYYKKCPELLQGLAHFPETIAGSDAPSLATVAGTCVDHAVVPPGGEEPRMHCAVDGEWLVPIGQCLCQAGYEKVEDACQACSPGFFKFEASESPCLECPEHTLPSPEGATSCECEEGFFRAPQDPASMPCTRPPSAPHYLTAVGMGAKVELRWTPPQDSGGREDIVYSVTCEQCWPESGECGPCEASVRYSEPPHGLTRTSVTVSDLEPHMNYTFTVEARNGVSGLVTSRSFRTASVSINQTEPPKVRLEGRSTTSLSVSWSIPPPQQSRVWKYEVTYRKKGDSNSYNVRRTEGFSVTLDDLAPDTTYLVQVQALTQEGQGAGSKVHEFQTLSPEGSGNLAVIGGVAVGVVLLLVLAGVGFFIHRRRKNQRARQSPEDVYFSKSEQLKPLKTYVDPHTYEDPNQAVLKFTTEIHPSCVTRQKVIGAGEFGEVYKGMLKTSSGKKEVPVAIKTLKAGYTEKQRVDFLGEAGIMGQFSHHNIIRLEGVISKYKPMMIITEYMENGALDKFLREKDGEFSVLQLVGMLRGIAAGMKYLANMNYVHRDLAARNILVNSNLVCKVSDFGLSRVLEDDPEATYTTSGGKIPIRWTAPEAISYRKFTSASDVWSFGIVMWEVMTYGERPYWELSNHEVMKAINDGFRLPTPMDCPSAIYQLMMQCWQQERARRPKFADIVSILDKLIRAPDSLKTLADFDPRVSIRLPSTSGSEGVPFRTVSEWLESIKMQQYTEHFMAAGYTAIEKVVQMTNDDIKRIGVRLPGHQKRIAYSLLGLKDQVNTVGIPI
T1 sequence (P68400 whole entry): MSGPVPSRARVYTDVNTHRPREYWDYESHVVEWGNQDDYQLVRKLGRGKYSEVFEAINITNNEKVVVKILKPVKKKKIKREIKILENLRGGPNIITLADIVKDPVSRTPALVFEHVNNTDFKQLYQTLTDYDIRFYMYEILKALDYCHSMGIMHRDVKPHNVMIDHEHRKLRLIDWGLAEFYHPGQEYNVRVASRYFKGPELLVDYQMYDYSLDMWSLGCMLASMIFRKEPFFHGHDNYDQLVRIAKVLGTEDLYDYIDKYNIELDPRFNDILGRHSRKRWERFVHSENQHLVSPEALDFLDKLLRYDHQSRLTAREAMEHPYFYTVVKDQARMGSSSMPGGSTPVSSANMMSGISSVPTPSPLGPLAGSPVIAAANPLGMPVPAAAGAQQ
Chain of CAMK2A (Q9UQM7 whole entry): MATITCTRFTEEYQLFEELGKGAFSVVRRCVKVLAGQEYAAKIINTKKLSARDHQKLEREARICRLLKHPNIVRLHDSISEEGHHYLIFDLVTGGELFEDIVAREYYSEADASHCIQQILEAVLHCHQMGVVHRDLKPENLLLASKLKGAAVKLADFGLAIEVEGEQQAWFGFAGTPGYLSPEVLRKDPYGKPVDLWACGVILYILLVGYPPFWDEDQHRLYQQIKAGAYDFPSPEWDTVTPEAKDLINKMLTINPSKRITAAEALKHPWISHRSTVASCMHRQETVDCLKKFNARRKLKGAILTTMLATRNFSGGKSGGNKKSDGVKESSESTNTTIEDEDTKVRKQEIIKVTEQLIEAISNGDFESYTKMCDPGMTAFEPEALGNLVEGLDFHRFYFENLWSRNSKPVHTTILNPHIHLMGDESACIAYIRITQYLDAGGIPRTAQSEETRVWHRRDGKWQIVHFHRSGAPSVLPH

Work on `C=CC(=O)N1CCCC(c2c(F)cc(C(N)=O)c3[nH]c4c(c23)CCCCC4)C1` (single isomer, unassigned) [Compound 5-6] yielded an inhibition at 1 µM (CSNK2A1/CK2A1) of 0.4%, an inhibition at 1 µM (EPHA2) of -1.9% and an inhibition at 1 µM (CDC42BPB/MRCKB) of -31%. For the same compound, the inhibition at 1 µM (BMP2K/BIKE) was -18.6%, the inhibition at 1 µM (FLT3) was 2.2% and the inhibition at 1 µM (MAPK7/ERK5) was -0.7%. For the same compound, the inhibition at 1 µM (PASK) was 1.8%, the inhibition at 1 µM (CAMK2A) was 4.9% and the inhibition at 1 µM (CLK3) was -29.3%. It also gave an inhibition at 1 µM (EPHB2) of 21.3%.
With `C=CC(=O)N1CCC[C@@H](c2c(F)cc(C(N)=O)c3[nH]c4c(c23)CC2(CC4)CC2)C1` [Compound 6-2, (S)-5-(1-acryloylpiperidin-3-yl)-6-fluoro-1,2,4,9-tetrahydrospiro[carbazole-3,1′-cyclopropane]-8-carboxamide] the inhibition at 1 µM (CSNK2A1/CK2A1) was -12%, the inhibition at 1 µM (EPHA2) was 9.5% and the inhibition at 1 µM (CDC42BPB/MRCKB) was -12.6%. The inhibition at 1 µM (BMP2K/BIKE) was -12.3%, the inhibition at 1 µM (FLT3) was -9.4% and the inhibition at 1 µM (MAPK7/ERK5) was 9.4%. It also gave an inhibition at 1 µM (PASK) of -8%, an inhibition at 1 µM (CAMK2A) of 35.8% and an inhibition at 1 µM (CLK3) of -0.1%. It also gave an inhibition at 1 µM (EPHB2) of 11.8%.
`C=CC(=O)N1CCC[C@@H](c2c(F)cc(C(N)=O)c3[nH]c4c(c23)CCC4)C1` [Compound 10-2, (S)-8-(1-acryloylpiperidin-3-yl)-7-fluoro-1,2,3,4-tetrahydrocyclo-penta[b]indole-5-carboxamide] gave an inhibition at 1 µM (CSNK2A1/CK2A1) of -32%, an inhibition at 1 µM (EPHA2) of -9.6% and an inhibition at 1 µM (CDC42BPB/MRCKB) of -10.2%. The inhibition at 1 µM (BMP2K/BIKE) was -6.6%, the inhibition at 1 µM (FLT3) was -4.6% and the inhibition at 1 µM (MAPK7/ERK5) was -4.3%. The inhibition at 1 µM (PASK) was -8.5%, the inhibition at 1 µM (CAMK2A) was 14.7% and the inhibition at 1 µM (CLK3) was -19.2%. It also gave an inhibition at 1 µM (EPHB2) of 0.9%.
